Counter-ions that a name gives are not always drawn.
Columns and labels:
Type in all cases: in vivo
[1] = tested on: rats mâles de souche WISTAR; assay: Hypotensive activity in anaesthetised rats (carotid arterial pressure, intravenous administration); conditions: relative to initial control pressure
Procedure: A) Détermination de l'activité hypotensive L'activité hypotensive a été étudiée sur des rats mâles de souche WISTAR pensant 300 g environ et anesthésiés au nembutal (50 mg/kg par voie intraveineuse).
Le produit testé a été administré par voie intraveineuse dans la veine jugulaire.
La pression artérielle carotidienne a été mesurée avant et après administration du produit testé.
Le tableau ci-après indique les variations exprimées en pourcentage de la pression artérielle après administration du produit testé par rapport à la pression artérielle témoin initiale: […]

[2] = tested on: souris; assay: Acute toxicity, oral administration in mice
Source text: On a évalué les doses létales DLo des différents composés testés après administration par voie orale chez la souris.
On apelle DLo la dose maximale ne provoquant aucune mortalité en 8 jours.

[3] = tested on: ulcéres au niveau de l'estomac, par ligature du pylore; assay: Antiulcer activity, Shay technique (gastric ulcers induced by pylorus ligation); conditions: pylorus-ligated rats, about 16 hours after treatment
Source text: La technique utilisée est décrite par SHAY et al dans Gastroenterology, 5, 43 (1945).
La technique de SHAY consiste à induire chez ez des rats des ulcéres au niveau de l'estomac, par ligature du pylore.
Les animaux sont anesthésiés à l'éther. Une incision longitudinale est faite 1 cm environ au-dessous du sternum, la partie glandulaire de l'estomac et le duodénum sont mis à jour et une ligature est posée quelques mm au-dessous du pylore. Le plan musculaire est laissé tel quel et la peau est suturée par deux agrafes.
Les animaux reçoivent aussitôt après le dispersif ou la substance à étudier, par voie buccale, sous un volume de 0,5 ml/100 g, et sont maintenus sans nourriture ni boisson, jusqu'au sacrifice par saignée carotidienne qui a lieu environ 16 heures après le traitement.
Avant de prélèver l'estomac, une ligature est possé au-dessus du cardia.
Le liquide gastrique est recueilli afin d'en mesure le pH.
L'estomac est ensuite ouvert selon la grande courbure, rincé dans le sérum physiologique et étalé sur du papier millimétrique pour être examiné sous la loupe binoculaire.
On évalue macroscopiquement la gravité des lésions qui est côtée de 0 à 4 pour chaque estomac.
On détermine pour chaque lot de rat, l'intensité moyenne des ulcérations et on calcule la protection en rapportant l'index moyen du groupe à l'index moyen du groupe témoin.
On détermine également les valeurs de pH du liquide gastrique pour les animaux traités et les animaux témoins.

[4] = tested on: rats mâles spontanément hypertendus (souche Okamoto); assay: Antihypertensive activity in spontaneously hypertensive rats (tail arterial pressure, oral administration); conditions: 1 mg/kg oral, relative to initial control pressure; for Variation % de la pression arterielle 1 heure après l'administration: 1 hour; for Variation % de la pression arterielle 4 heures après l'administration: 4 hours
Source text: L'action antihypertensive a été étudiée sur des rats mâles spontanément hypertendus (souche Okamoto) âgés de 20 semaines pesant 300 à 320g.
Le produit a été administré par voie orale 48 heures après la pose d'un cathéter intracarotidien.
La pression artérielle a été mesurée à la queue du rat au moyen d'un manchon pneumatique et à l'aide d'un transducteur piezo-électrique de pression. La pression a été mesurée avant et une heure, quatre heures et vingt-quatre heures après l'administration du produit.
Le tableau ci-après indique les variations exprimées en pourcentages de la pression artérielle, après administration du produit, par rapport à la pression témoin initiale.

[5] = oral, mice, maximal dose causing no mortality in 8 days
[6] = dose −0,1 mg/kg [sic], intravenous

Compound	Variation % de la pression arterielle 1 minute après l'administration ([1]; 1 mg/kg intravenous)	Variation % de la pression arterielle 5 minutes après l'administration ([1]; 1 mg/kg intravenous)	Variation % de la pression arterielle 10 minutes après l'administration ([1]; 1 mg/kg intravenous)	Variation % de la pression arterielle 30 minutes après l'administration ([1]; 1 mg/kg intravenous)	Variation % de la pression arterielle 1 minute après l'administration ([1]; 10 mg/kg intravenous)	Variation % de la pression arterielle 5 minutes après l'administration ([1]; 10 mg/kg intravenous)	Variation % de la pression arterielle 10 minutes après l'administration ([1]; 10 mg/kg intravenous)	Variation % de la pression arterielle 30 minutes après l'administration ([1]; 10 mg/kg intravenous)	DLo [2, 5]	DLo ([2]; mouse, in vivo, po, 11520 min)	Variation % de la pression arterielle 1 minute après l'administration ([1]; 0,1 mg/kg intravenous)	Variation % de la pression arterielle 5 minutes après l'administration ([1]; 0,1 mg/kg intravenous)	Variation % de la pression arterielle 10 minutes après l'administration ([1]; 0,1 mg/kg intravenous)	Variation % de la pression arterielle 30 minutes après l'administration ([1]; 0,1 mg/kg intravenous)	other results
OC(CNCc1ccccc1)c1cccc2[nH]ccc12 (centres unmarked) [Exemple 8, Oxalate acidede 1'a[[(phénylméthyl)amino]méthyl]-1 H-indole-4-méthanol]	−9%	−8%	−6%	−10%	−38%	−21%	−21%	−15%	100 mg/kg	–	–	–	–	–	–
oxalate neutre de 1'a-[[(1-éthylpropyl)amino]méthyl]-1 H-indole-4-méthanol [Exemple 7]	–	–	–	–	−59%	−56%	−50%	−35%	–	80 mg/kg	–	–	–	–	–
OC(CNCC(O)c1cccc2[nH]ccc12)COc1ccccc1 (centres unmarked) [Exemple 10, a-[[(2-hydroxy-3-phénoxy-propyl)amino]méthyl]-1H-indole-4-méthanol]	−32%	−14%	−15%	−13%	–	–	–	–	–	> 400 mg/kg	–	–	–	–	–
CCCNCC(O)c1cccc2[nH]ccc12 (centres unmarked) [Exemple 11, Oxalatede 1'a[[(1-propyl)amino]méthyl]-1H-indole-4-méthanol]	−22%	−33%	−33%	−30%	–	–	–	–	100 mg/kg	–	−11%	−12%	−12%	−13%	Ulcération % de protection par rapport aux témoins ([3]; 1 mg/kg oral): 48%; pH du liquide gastrique animaux traités ([3]; 1 mg/kg oral, controls pH 3,3): 3,2; Ulcération % de protection par rapport aux témoins ([3]; 5 mg/kg oral): 63%; pH du liquide gastrique animaux traités ([3]; 5 mg/kg oral, controls pH 3,0): 2,9
Oxalate neutre de 1'a[[(1-méthyléthyl)amino]méthyl]-1H-indole-4-méthanol [Exemple 2]	−41%	−38%	−29%	−20%	–	–	–	–	–	200 mg/kg	−36%	−28%	−30%	−27%	Variation % de la pression arterielle 1 heure après l'administration [4]: −22%; Variation % de la pression arterielle 4 heures après l'administration [4]: −21%
CNCC(O)c1cccc2[nH]ccc12 (centres unmarked) [Exemple 3, a-(méthylamino)méthyl-1 H-indole-4-méthanol]	–	–	–	–	–	–	–	–	600 mg/kg	–	–	–	−5%	–	Variation % de la pression arterielle 1 minute après l'administration [1, 6]: +19%; Variation % de la pression arterielle 5 minutes après l'administration [1, 6]: −4%; Variation % de la pression arterielle 30 minutes après l'administration [1, 6]: −9%
CNCC(O)c1cccc2c1CCN2 (centres unmarked) [Exemple 6, a-(méthylamino)métyl-2,3-dihydro-1 H-indole-4-méthanol]	–	–	–	–	–	–	–	–	> 400 mg/kg	–	–	–	–	–	–
OC(CNCCc1ccccc1)c1cccc2[nH]ccc12 (centres unmarked) [Exemple 9, Oxalate acidede 1'a-[[(2-phényléthyl)amino]méthyl]-1 H-indole-4-méthanol]	−13%	−11%	−4%	−3%	−48%	−44%	−37%	−33%	–	80 mg/kg	–	–	–	–	–
CC(C)NCC(O)c1cccc2c1CCN2 (stereo not drawn) [Exemple 5, α-[[(1-méthyléthyl)amino]méthyl]2,3-dihydro-1H-indole-4-méthanol]	−20%	−19%	−17%	−14%	–	–	–	–	200 mg/kg	–	−24%	−28%	−26%	−22%	Variation % de la pression arterielle 1 heure après l'administration [4]: −27%; Variation % de la pression arterielle 4 heures après l'administration [4]: −24%; Variation % de la pression arterielle 24 heures après l'administration ([4]; 24 hours): −17%; Ulcération % de protection par rapport aux témoins ([3]; 0,4 mg/kg oral): 60%; pH du liquide gastrique animaux traités ([3]; 0,4 mg/kg oral, controls pH 2,2): 2,5; Ulcération % de protection par rapport aux témoins ([3]; 0,08 mg/kg oral): 66%; pH du liquide gastrique animaux traités ([3]; 0,08 mg/kg oral, controls pH 2,2): 2,6; Ulcération % de protection par rapport aux témoins ([3]; 2 mg/kg oral): 90%; pH du liquide gastrique animaux traités ([3]; 2 mg/kg oral, controls pH 2): 2,6
NCC(O)c1cccc2[nH]ccc12 (stereo not drawn) [Exemple 1, Fumaratede 1α-(aminométhyl)-1H-indole-4-méthanol]	–	–	–	–	–	–	–	–	>1000 mg/kg	–	–	–	–	–	–
